Structures can show the parent of a compound that is named as a salt. Where two headings read alike, the source gives them in different places.
Key:
S. aureus ATCC 29213 = assay: Broth microdilution testing (CLSI); format: cell-based, Staphylococcus aureus; conditions: 16–24h at 37 °C, read-out: MIC S. aureus ATCC 29213
Protocol: (§1) Broth microdilution testing was performed according to CLSI (Clinical Laboratory Standards Institute) guidelines. MIC (minimal inhibitory concentration) value was defined as the last tested concentration of compound at which there is no visible growth of bacteria. […] Clinical and Laboratory Standards Institute (CLSI) guidelines.

E. coli ATCC 25922 = assay: Broth microdilution testing (CLSI); format: cell-based, Escherichia coli; conditions: broth microdilution, 16–24h at 37 °C, read-out: MIC E. coli ATCC 25922
Protocol: as §1

S. cerevisiae ATCC 7752 = assay: Broth microdilution testing (CLSI); format: cell-based, Saccharomyces cerevisiae; conditions: broth microdilution, 16–24h at 37 °C, read-out: MIC S. cerevisiae ATCC 7752
Protocol: as §1

NCI-H358 [1] = assay: Cytotoxicity (viability) assay, 3D hanging drop cell culture; conditions: Homo sapiens, NCI-H358, 72 h, read-out: Cytotoxicity Assay IC50 ± SD; NCI-H358 3D
Protocol: (§2) MTS assay gives us information about the number of living cells, in this case, metabolically active cells, whereas the BrdU proliferation assay gives a measure of the cell population in active division phase. Both assays were performed in 2D and 3D assay formats. For the 2D cell assay format, we used classic two-dimensional in vitro assays and as a 3D assay we used a hanging drop proliferation cell assay as previously described. We explored the activity of compounds on three human lung cancer cell lines, A549, HCC827 and NCI-H358. The compound activity was also tested on human lung fibroblast cell line MRC-5. A two-dimensional in vitro viability assay was performed on the MRC-5 cell line to see if tested compounds are cytotoxic on normal cell lines in low concentrations. […] 7.1.
(§3) Test compounds were synthesized by a research group at the Department of Organic Chemistry, Faculty of Chemical Engineering and Technology, University of Zagreb. […] Compounds were diluted 1:3. We transferred 500 nL (for 2D cell culture) or 400 nL (for 3D cell culture) of the compound from a mother plate to test plate by using Mosquito (TTP labtech). DMSO percentage in test concentrations was 0.5–1.0%. Starting concentration of the test compounds and standard compound doxorubicin was 50 µM (2D cell culture) or 100 µM (3D cell culture).
(§4) Cells were grown in 96-well Perfecta 3D hanging drop plates 5000 cell/well for 4 days until spheres were formed (and checked under the microscope). After sphere formation cells were treated with compounds followed by 72 h incubation. Cell viability assay was performed according to the manufacturer’s instructions, using CellTiter GLO 3D for 3D cell culture (Promega); cell incubation was 5 min on the shaker followed by 25 min incubation in the dark. Plates were read using PE EnVision luminescence.
(§5) Calculation of IC50 data, curves and QC analysis was performed by using Excel tools and GraphPadPrism software (La Jolla, CA, USA), v. […] QC criteria parameters (Z’, S:B, R2, HillSlope) were checked for every IC50 curve.

HCC827 [2] = assay: as above; conditions: Homo sapiens, HCC827, 72 h, read-out: Cytotoxicity Assay IC50 ± SD; HCC827 3D
Protocol: as §2, §3, §4, §5

A549 [3] = assay: as above; conditions: Homo sapiens, A549, 72 h, read-out: Cytotoxicity Assay IC50 ± SD; A549 3D
Protocol: as §2, §3, §4, §5

NCI-H358 [4] = assay: BrdU proliferation assay, 2D cell culture; format: cell-based, human; conditions: Homo sapiens, NCI-H358, 2D, n = 2, read-out: Proliferation Assay IC50 ± SD
Protocol: as §2, §3
(§6) Cells were grown in 96-well cell star polystyrene plates. We seeded 10,000 cells/well in wells 4 h prior to the treatment with different compounds concentrations and incubated for 72 h. A cell viability assay was performed according to the manufacturer’s instructions, using CellTiter 96 aqueous solution, MTS kit (Promega, Madison, WI, USA). After 0.5–2 h of cell incubation with MTS in 2D cell culture, the plates were read using PE EnVision absorbance at 490 nm.
(§7) Proliferation assay was performed using Cell Proliferation ELISA, BrdU (Sigma, St. Louis, MO, USA). Briefly, 48 h hours after compound addition, 10 µM of BrdU was added to each well and incubated for the following 24 h. After incubation, a single cell suspension was made for 3D cell culture in the new 96-well plate. Plates were centrifuged and supernatants were removed from each plate (for 2D and 3D cell culture) followed by 60 min incubation at 60 °C. The rest of the proliferation assay was performed according to the manufacturer’s instructions.
as §5

HCC827 [5] = assay: BrdU proliferation assay, 2D cell culture; format: cell-based, human; conditions: Homo sapiens
Protocol: as §2, §3, §6, §7, §5

A549 [6] = assay: BrdU proliferation assay, 2D cell culture; format: cell-based, human; conditions: Homo sapiens
Protocol: as §2, §3, §6, §7, §5

NCI-H358 [7] = assay: BrdU proliferation assay, 3D hanging drop cell culture; format: cell-based, human; conditions: Homo sapiens, NCI-H358, 3D, n = 2, read-out: Proliferation Assay IC50 ± SD
Protocol: as §2, §3, §4, §7, §5

HCC827 [8] = assay: as above; format: cell-based, human; conditions: Homo sapiens, HCC827, 3D, BrdU, n = 2, read-out: Proliferation Assay IC50 ± SD
Protocol: as §2, §3, §4, §7, §5

A549 [9] = assay: as above; format: cell-based, human; conditions: Homo sapiens
Protocol: as §2, §3, §4, §7, §5

in vitro = conditions: human
Protocol: as §2, §3, §6, §5

NCI-H358 [10] = assay: MTS cytotoxicity assay, 2D cell culture; conditions: Homo sapiens, NCI-H358, 72 h, read-out: Cytotoxicity Assay IC50 ± SD; NCI-H358 2D
Protocol: as §2, §3, §6, §5

HCC827 [11] = assay: MTS cytotoxicity assay, 2D cell culture; conditions: Homo sapiens, HCC827, 72 h, read-out: Cytotoxicity Assay IC50 ± SD; HCC827 2D
Protocol: as §2, §3, §6, §5

A549 [12] = assay: MTS cytotoxicity assay, 2D cell culture; conditions: Homo sapiens, A549, 72 h, read-out: Cytotoxicity Assay IC50 ± SD; A549 2D, 72 h, MTS; n = 2
Protocol: as §2, §3, §6, §5

With Gentamycin [reference compound] the MIC (S. aureus ATCC 29213; broth microdilution) was 0.25 µM, the MIC (E. coli ATCC 25922) was 0.5 µM and the MIC (S. cerevisiae ATCC 7752) was >64 µM.
With `COc1cccc2c1C(=O)c1c(O)c3c(c(O)c1C2=O)C[C@@](O)(C(=O)CO)C[C@@H]3O[C@H]1C[C@H](N)[C@H](O)[C@H](C)O1` [Doxorubicin, reference compound] the IC50 (NCI-H358 [1]) was 990 ± 150 nM, the IC50 (HCC827 [2]) was 1470 ± 120 nM and the IC50 (A549 [3]) was 5.86 ± 1.1 µM. It also gave an IC50 (NCI-H358 [4]) of 70 ± 40 nM, an IC50 (HCC827 [5]; HCC827, 2D, BrdU, n = 2, read-out: Proliferation Assay IC50 ± SD) of 250 ± 280 nM and an IC50 (A549 [6]; A549, 2D, BrdU, n = 2, read-out: Proliferation Assay IC50 ± SD) of 130 ± 10 nM. The IC50 (NCI-H358 [7]) was 2300 ± 1910 nM, the IC50 (HCC827 [8]) was 1890 ± 2300 nM and the IC50 (A549 [9]; A549, 3D, BrdU, n = 2, read-out: Proliferation Assay IC50 ± SD) was 480 ± 30 nM. It also gave an IC50 at 72 h (in vitro) of 600 ± 10 nM, an IC50 (NCI-H358 [10]) of 150 ± 60 nM and an IC50 (HCC827 [11]) of 320 ± 30 nM. For the same compound, the IC50 (A549 [12]) was 1310 ± 110 nM.
`CC(C)NC(=N)c1ccc2nc(-c3ccc(-c4ccc(Cl)cc4)o3)sc2c1` (as salt: hydrochloride) [Compound 8, 2-[5-(4-Chlorophenyl)furan-2-yl]-6-N-isopropilamidinobenzothiazole hydrochloride] gave a melting point of 204 to 208 °C.
With `C[C@@H](c1ncncc1F)[C@](O)(Cn1cncn1)c1ccc(F)cc1F` [Voriconazole, reference compound] the MIC (S. aureus ATCC 29213; Staphylococcus aureus, ATCC29213, broth microdilution) was > 64 µM, the MIC (E. coli ATCC 25922; Escherichia coli, ATCC25922) was > 64 µM and the MIC (S. cerevisiae ATCC 7752; Saccharomyces cerevisiae, ATCC7752) was < 0.125 µM.
For `CC(C)NC(=N)c1ccc2nc(-c3ccc(-c4ccc([N+](=O)[O-])cc4)o3)sc2c1` (as salt: hydrochloride) [Compound 5, 2-[5-(4-Nitrophenyl)furan-2-yl]-6-N-isopropilamidinobenzothiazole hydrochloride], the melting point was 201 to 206 °C.
For `O=[N+]([O-])c1ccc(-c2ccc(-c3nc4cc(C5=NCCN5)ccc4[nH]3)o2)cc1` (as salt: hydrochloride) [Compound 12, 5(6)-(4,5-Dihydro-1H-imidazol-2-yl)-2-[5-(4-nitrophenyl)furan-2-yl]benzimidazole hydrochloride], the melting point was > 270 °C.
`CN[C@@H]1C[C@H]2O[C@@](C)([C@@H]1OC)n1c3ccccc3c3c4c(c5c6ccccc6n2c5c31)C(=O)NC4` [Staurosporine, reference compound] gave an IC50 (HCC827 [5]; HCC827, read-out: Proliferation Assay IC50 ± SD, HCC827 2D) of 4 ± 2 nM, an IC50 (A549 [6]; A549, read-out: Proliferation Assay IC50 ± SD, A549 2D) of 35 ± 17 nM and an IC50 (A549 [9]; A549, read-out: Proliferation Assay IC50 ± SD, A549 3D) of 110 ± 1 nM. It also gave an IC50 at 72 h (in vitro) of 31 ± 11 nM and an IC50 (HCC827 [11]) of 33 ± 2 nM.

Source: publication PMC8401404 (Molecules, 2021)
